Assay [1] relates to neuronal damage in the hippocampus. As to the kind of experiment: gerbil ischemic model (bilateral carotid occlusion), hippocampal neuronal damage rating. The format is in vivo, adult female Mongolian gerbils. The source says:
(§1) The actions of compounds of formula I as antagonists at the glycine receptor of the NMDA receptor complex can be shown by standard tests such as the [^3 H]-glycine binding assay, by functional assays in vitro such as tests for measuring glutamate evoked contractions of the guinea pig ileum, and by tests in vivo such as ischemia induced by carotid occlusion in the gerbil model.
When testing in vivo using the gerbil ischemic model, adult female Mongolian gerbils (50-70 g) are anesthetized with 2 to 3% halothane. The bilateral common carotid arteries at the neck are exposed and occluded with microaneurysm clips. After 10 min (unless specified), the clips are removed and the blood flow through the carotid arteries is restored and the skin is sutured. Test compounds are administered intraperitoneally both pre- and post-occlusion, for example 45 minutes before and 5 minutes after occlusion of the carotid arteries. Sham-operated animals are treated in the same manner except that the arteries are not clamped. Gross behavioral observations along with motor activity are recorded for 2 hr on the first (24 hr) day following the occlusion. After 4 days, subjects are sacrificed (decapitation), brains are removed, fixed, sectioned and stained with hematoxylin/eosin and cresyl violet.
The brain sections are rated for neuronal damage in the hippocampus using the following rating scale:
1=slight damage (up to 25%)--restricted CA1/subiculum border
2=moderate damage (up to 50%)--obvious damage, restricted to less than half of CA1 field
3=marked damage (up to 75%)--involving greater than half of CA1 field
4=damage extending beyond CA1 field
Results can be reported as the percentage of neuroprotection afforded by a particular dose and dosing regimen.
Sections (7 micron) are evaluated from each brain. Occasionally, asymmetrical damage may be noted and the rating assigned is the average score of the two sides. The average brain damage rating score for each group is recorded, and the damage scores of the drug treated group are compared to the vehicle-treated group using Wilcoxcon-Rank Sum test.
Typical values in this test for compounds according to the invention are illustrated by the following results: for the compound of Example 1, 57% neuroprotection (relative to sham-operated control) when dosed twice with 20 mg/kg body weight intraperitoneally (ip) according to the above regimen; 44% neuroprotection when dosed with 30 mg/kg body weight ip three times at 15, 30, and 45 minutes after induction of ischemia; for the compound of Example 3, 83% neuroprotection when dosed twice with 30 mg/kg body weight ip according to the above regimen; for the compound of Example 1a, 78% neuroprotection when dosed twice with 20 mg/kg body weight ip according to the above regimen.

Assay [2] relates to NMDA receptor channel complex. As to the kind of experiment: inhibition of glutamate evoked contractions of the guinea pig ileum (longitudinal muscle/myenteric plexus). The following applies: 100 μM glutamate; test compound added 5 minutes before the glutamate. The format is cell-based.
Description: as §1
For glutamate evoked contractions of the guinea pig ileum, the methodology is as described previously (Luzzi et. al., Br. J. Pharmacol., 95, 1271-1277 (1989). The longitudinal muscle and associated myenteric plexus are removed and placed in oxygenated modified Krebs-Henseleit solution (118 mM NaCl, 4.7 mM KCl, 2.5 mM CaCl2, 1.2 mM KH2 PO4, 25 mM NaHCO3, and 11 mM glucose). Tissues are suspended on glass rods in organ baths under a resting tension of 0.5 g. After an initial depolarization with 80 mM potassium to remove possible blockade of the NMDA receptor channel complex with magnesium, twitch responses are evoked with 100 μM glutamate. Isometric mechanical responses are recorded. Tissues are equilibrated for at least 2 hours prior to addition of compounds.
A dose response curve for the effect of the unknown on the magnitude of the glutamate-evoked contractions is generated. Glutamate-evoked contractions are generated at 20 minute intervals, with the test compound added 5 minutes before the glutamate. […]

Assay [3] deals with T1, glycine receptor of the NMDA receptor complex (Rattus norvegicus, UniProt P35439).
T1 construct: Freshly dissected cortices and hippocampi are homogenized in 0.32 M sucrose; from tissue; host or cells: synaptic membranes of cortices and hippocampi of adult male Sprague-Dawley rats
As to the kind of experiment: [3H]-glycine binding assay at the N-methyl-D-aspartate receptor, rat neuronal synaptic membranes (cortices and hippocampi). The arrangement: species or system male Sprague-Dawley rats. Particulars: 20 nM [3H]-glycine, pH 7.1, 30 minutes at 4° C. Here is the method: as §1
In the [^3 H]-glycine binding assay, neuronal synaptic membranes are prepared from adult (about 250 g) male Sprague-Dawley rats. Freshly dissected cortices and hippocampi are homogenized in 0.32 M sucrose (110 mg/mL). Synaptosomes are isolated by centrifuga-tion (1000×g, 10 min), the supernatant is pelleted (20,000×g, 20 min) and resuspended in double-distilled water. The suspension was centrifuged for 20 minutes at 8,000×g. The resulting supernatant and buffy coat are washed twice (48,000×g, 10 mins, resuspension in double-deionized water). The final pellet is quickly frozen (dry iceethanol bath) under double-deionized water and stored at -70° C.
On the day of the experiment, thawed synaptic membranes are homogenized with a Brinkmann Polytron (tm, Brinkmann Instruments, Westbury, N.Y.) tissue homogenizer in 50 mM tris(hydroxymethyl)aminomethane citrate, pH 7.1. The membranes are incubated with 0. 04% Sufact-AMPS X100 (tm, Pierce, Rockford, Ill.) in buffer for 20 minutes at 37° C. and washed six times by centrifugation (48,000×g, 10 min) and resuspended in buffer. The final pellet is homogenized at 200 mg wet weight/mL of the buffer for the binding assay.
For [^3 H]-glycine binding at the N-methyl-D-aspartate receptor, 20 nM [^3 H]-glycine (40-60 Ci/mmol, New England Nuclear, Boston, Mass.) is incubated with the membranes suspended in 50 mM tris (hydroxymethyl)aminomethane citrate, pH 7.1 for 30 minutes at 4° C. Glycine, 1 mM, is used to define the nonspecific binding. […] Radioactivity is estimated by liquid scintillation counting. […]

Setting [4] is: dosed twice with 20 mg/kg ip, pre- and post-occlusion (e.g. 45 min before and 5 min after), Example 1: relative to sham-operated control.

Each structure is given as a SMILES string.

With `O=c1[nH]c2cc(Br)ccc2c(=O)cc1O` [Example 3, 8-bromo-2,5-dihydro-2,5-dioxo-3-hydroxy-1H-benz[b]azepine], the neuroprotection in assay [1] (dosed twice with 30 mg/kg ip, pre- and post-occlusion (e.g. 45 min before and 5 min after)) came to 83%. Besides, the concentration for half-maximal inhibition (IC50) in assay [2] worked out at 1000 nM; in assay [3] it was 97 nM.
Consider `O=c1[nH]c2cc(Cl)ccc2c(=O)cc1O` [Example 1, 8-Chloro-2,5-dihydro-2,5-dioxo-3-hydroxy-1H-benz[b]azepine], for which the neuroprotection amounted to 44% in assay [1] (30 mg/kg ip three times at 15, 30, and 45 minutes after induction of ischemia); 57% in assay [1] (setting [4]). The IC50 in assay [2] was determined as 110 nM; in assay [3], 30 nM.
Turning to `COc1cc(=O)c2ccc(Cl)cc2[nH]c1=O` [Example 1a, 8-Chloro-2,5-dihydro-2,5-dioxo-3-methoxy-1H-benz[b]azepine], the neuroprotection in assay [1] (setting [4]) turned out to be 78%. Besides, the IC50 in assay [3] worked out at 1000 nM.

What is called IC50 is the concentration that gives 50% inhibition. Low readings indicate higher potency, high ones lower potency.
